In experiment [1] the test system is angiotensin II infused rats. Put plainly: Assay A angiotensin II infusion model: systolic blood pressure by tail-cuff. The experiment is classed as in vivo, rat. As to conditions: Wistar rats, 1% NaCl, angiotensin II 25 ng/min sc; eplerenone 100 mpk; 4 weeks. The protocol: Assay A: In Vivo Angiotensin II Infusion Model
Male Wistar rats (n—50, 10/group; BW=200 g)
2. Angiotensin 11 (25 ng/min, sc via aizet minipump)
SBP measured by tail-cuff every week

Experiment [2] deals with angiotensin II infused rats. Put plainly: Assay A angiotensin II infusion model: heart histology (coronary vascular inflammation, myocardial injury). The experiment is classed as in vivo, rat. As to conditions: out of ten animals per group; angiotensin II/salt, 4 weeks; eplerenone 100 mpk.

As for “angiotensin II: angiotensin II, 25 ng/min sc via minipump, used to induce hypertension with vascular inflammation in rats (DRVYIHPF; Angiotensin-2; UniProt P01015 25-32, looked up) [reference compound]”, the Systolic Blood Pressure entry in experiment [1] is on record as “Systolic blood pressure increased”. In experiment [2], the “Animals with vascular inflammatory lesions in the coronary arteries” value was “Seven out of the ten”.

The record behind these values is US20030162759A1, “Aldosterone blocker therapy to prevent or treat inflammation-related disorders” (priority 2000, published 2003).
